Reference: paper PMC2764408 (Biochemistry, 2008)

Key:
Format in all cases: binding
[1] = molecular target: T1, monomeric sarcosine oxidase (MSOX) (Bacillus sp. B-0618, UniProt P40859, K266M); assay: absorption spectral titration of charge transfer band
T1 sequence (P40859 2-390 K266M): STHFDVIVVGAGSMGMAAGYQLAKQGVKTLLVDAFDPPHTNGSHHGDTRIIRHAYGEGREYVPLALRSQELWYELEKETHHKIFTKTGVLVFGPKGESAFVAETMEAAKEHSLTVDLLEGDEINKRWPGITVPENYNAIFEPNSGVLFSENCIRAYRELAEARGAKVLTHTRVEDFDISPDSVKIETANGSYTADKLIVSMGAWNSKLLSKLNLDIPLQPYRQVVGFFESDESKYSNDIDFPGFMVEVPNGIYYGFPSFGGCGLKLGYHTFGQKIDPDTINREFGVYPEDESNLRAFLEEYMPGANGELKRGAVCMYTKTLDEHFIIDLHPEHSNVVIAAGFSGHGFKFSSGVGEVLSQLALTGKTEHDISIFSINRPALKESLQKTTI

[2] = molecular target: T2, monomeric sarcosine oxidase (MSOX) (Bacillus sp. B-0618, UniProt P40859, K266R); assay: as above
T2 sequence (P40859 2-390 K266R): T1 sequence (P40859 2-390 K266M)

[3] = molecular target: T1, monomeric sarcosine oxidase (MSOX); assay: stopped-flow diode array, initial charge transfer absorbance
[4] = molecular target: T2, monomeric sarcosine oxidase (MSOX); assay: as above

`CSCC(=O)O` [methylthioacetate] showed a Kd [1] of 13.3 ± 0.3 mM and a Kd [2] of 6.9 ± 0.1 mM.
For `CNCC(=O)O` [sarcosine, N-methylglycine], the Kd [3] was 58 ± 10 mM and the Kd [4] was 34 ± 1 mM.
